Assay results from patent US20040266623A1, “SYNERGISTIC QUINCLORAC HERBICIDAL COMPOSITIONS” (priority 2003, published 2004).

Legend:
Experiment in all cases: Greenhouse pot test, postemergent spray, visual control rating converted to percent control
Assay type in all cases: in vivo
[1] = test system: crabgrass; settings: for Control (1-9) Crabgrass: scale 1=no control, 9=death of plant
Experimental: (§1) Pots of crabgrass, dandelion, white clover, and plantain grown in greenhouse soiless growth media were sprayed with a greenhouse pot sprayer at 43.46 gallons of spray solution/acre and allowed to stand in the greenhouse. Visual observation of the effects made by the herbicidal compositions on the plants in the test pots was recorded for control of crabgrass, dandelion, clover and plantain at 24 hours after treatment (HAT), 48 hours after treatment (HAT), 72 hours after treatment (HAT), 7 days after treatment (DAT), 14 days after treatment (DAT) and 21 days after treatment (DAT). A control rating scale of 1 to 9 was used to record the visual observation of the effect of the herbicidal composition on the plants over the time period of the tests. 1=no control, and 9=death of plant, with intervening numbers representing successive degrees of observed effectiveness of the herbicidal composition over time. The 1-9 control rating scale was converted to percent control in the test data charts that follow.
(§2) The test protocol of S. R. Colby as set out in his article entitled “Calculating Synergistic and Antagonistic Responses of Herbicide Compositions,” received for publication Apr. 11, 1966, Contribution No. 3796 and Scientific Article No. 1271 of the Maryland Agricultural Experiment Station, Department pf Agronomy, University of Maryland was followed to evaluate the synergistic properties of the combination of quinclorac plus a herbicidal protox inhibitor, and a combination of quinclorac, plus a herbicidal protox inhibitor plus a herbicidal auxinic agent as compared with the individual herbicides, using Colby's formulas E=X+Y−XY/100 for a two herbicide combination, where E=the expected percent of inhibition of growth by herbicides, X=the percent inhibition of growth by herbicide A at p lb/A, and Y=the percent inhibition of growth by herbicide B at q lb/A, for a given combination of two herbicides. Colby's formula E=X+Y+Z−(XY+XZ+YZ)/100+XYZ/10,000, was used for the three-way herbicide combination evaluation, where E, X and Y are the same as in the two herbicide formula and Z=the percent inhibition of growth by the third herbicide.

[2] = test system: dandelion; settings: for Control (1-9) Dandelion: scale 1=no control, 9=death of plant
Experimental: as §1, §2

[3] = test system: plantain; settings: for Control (1-9) Plantain: scale 1=no control, 9=death of plant
Experimental: as §1, §2

[4] = test system: white clover; settings: for Control (1-9) Clover: scale 1=no control, 9=death of plant
Experimental: as §1, §2

O=C(O)c1c(Cl)ccc2cc(Cl)cnc12 [Quinclorac @ 0.375 lbs/A]
% Control Crabgrass ([1]; Test 3, 7 DAT): 22.2% | Control (1-9) Crabgrass ([1]; Test 3, 7 DAT): 2 | % Control Crabgrass ([1]; Test 3, 14 DAT): 44.4% | Control (1-9) Crabgrass ([1]; Test 3, 14 DAT): 4 | % Control Crabgrass ([1]; Test 3, 21 DAT): 66.7% | Control (1-9) Crabgrass ([1]; Test 3, 21 DAT): 6 | % Control Crabgrass ([1]; Test 3, 24 HAT): 11.1% | Control (1-9) Crabgrass ([1]; Test 3, 24 HAT): 1 | % Control Crabgrass ([1]; Test 3, 72 HAT): 11.1% | Control (1-9) Crabgrass ([1]; Test 3, 72 HAT): 1 | % Control Crabgrass ([1]; Test 4, 24 HAT): 11.1% | Control (1-9) Crabgrass ([1]; Test 4, 24 HAT): 1 | % Control Crabgrass ([1]; Test 4, 72 HAT): 11.1% | Control (1-9) Crabgrass ([1]; Test 4, 72 HAT): 1 | % Control Dandelion ([2]; Test 3, 7 DAT): 22.2% | Control (1-9) Dandelion ([2]; Test 3, 7 DAT): 2 | % Control Dandelion ([2]; Test 3, 14 DAT): 44.4% | Control (1-9) Dandelion ([2]; Test 3, 14 DAT): 4 | % Control Dandelion ([2]; Test 3, 21 DAT): 55.6% | Control (1-9) Dandelion ([2]; Test 3, 21 DAT): 5 | % Control Dandelion ([2]; Test 3, 24 HAT): 11.1% | Control (1-9) Dandelion ([2]; Test 3, 24 HAT): 1 | % Control Dandelion ([2]; Test 3, 72 HAT): 22.2% | Control (1-9) Dandelion ([2]; Test 3, 72 HAT): 2 | % Control Dandelion ([2]; Test 4, 24 HAT): 22.2% | Control (1-9) Dandelion ([2]; Test 4, 24 HAT): 2 | % Control Dandelion ([2]; Test 4, 72 HAT): 22.2% | Control (1-9) Dandelion ([2]; Test 4, 72 HAT): 2 | % Control Plantain ([3]; Test 3, 7 DAT): 33.3% | Control (1-9) Plantain ([3]; Test 3, 7 DAT): 3 | % Control Plantain ([3]; Test 3, 14 DAT): 44.4% | Control (1-9) Plantain ([3]; Test 3, 14 DAT): 4 | % Control Plantain ([3]; Test 3, 21 DAT): 44.4% | Control (1-9) Plantain ([3]; Test 3, 21 DAT): 4 | % Control Plantain ([3]; Test 3, 24 HAT): 11.1% | Control (1-9) Plantain ([3]; Test 3, 24 HAT): 1 | % Control Plantain ([3]; Test 3, 72 HAT): 22.2% | Control (1-9) Plantain ([3]; Test 3, 72 HAT): 2 | % Control Plantain ([3]; Test 4, 24 HAT): 11.1% | Control (1-9) Plantain ([3]; Test 4, 24 HAT): 1 | % Control Plantain ([3]; Test 4, 72 HAT): 22.2% | Control (1-9) Plantain ([3]; Test 4, 72 HAT): 2 | % Control Clover ([4]; Test 3, 7 DAT): 44.4% | Control (1-9) Clover ([4]; Test 3, 7 DAT): 4 | % Control Clover ([4]; Test 3, 14 DAT): 55.6% | Control (1-9) Clover ([4]; Test 3, 14 DAT): 5 | % Control Clover ([4]; Test 3, 21 DAT): 88.9% | Control (1-9) Clover ([4]; Test 3, 21 DAT): 8 | % Control Clover ([4]; Test 3, 24 HAT): 11.1% | Control (1-9) Clover ([4]; Test 3, 24 HAT): 1 | % Control Clover ([4]; Test 3, 72 HAT): 22.2% | Control (1-9) Clover ([4]; Test 3, 72 HAT): 2 | % Control Clover ([4]; Test 4, 24 HAT): 11.1% | Control (1-9) Clover ([4]; Test 4, 24 HAT): 1 | % Control Clover ([4]; Test 4, 72 HAT): 22.2% | Control (1-9) Clover ([4]; Test 4, 72 HAT): 2

Cc1nn(-c2cc(NS(C)(=O)=O)c(Cl)cc2Cl)c(=O)n1C(F)F [Sulfentrazone @ 0.03 lbs/A]
% Control Crabgrass ([1]; Test 3, 7 DAT): 55.6% | Control (1-9) Crabgrass ([1]; Test 3, 7 DAT): 5 | % Control Crabgrass ([1]; Test 3, 14 DAT): 55.6% | Control (1-9) Crabgrass ([1]; Test 3, 14 DAT): 5 | % Control Crabgrass ([1]; Test 3, 21 DAT): 44.4% | Control (1-9) Crabgrass ([1]; Test 3, 21 DAT): 4 | % Control Crabgrass ([1]; Test 3, 24 HAT): 11.1% | Control (1-9) Crabgrass ([1]; Test 3, 24 HAT): 1 | % Control Crabgrass ([1]; Test 3, 72 HAT): 44.4% | Control (1-9) Crabgrass ([1]; Test 3, 72 HAT): 4 | % Control Dandelion ([2]; Test 3, 7 DAT): 66.7% | Control (1-9) Dandelion ([2]; Test 3, 7 DAT): 6 | % Control Dandelion ([2]; Test 3, 14 DAT): 77.8% | Control (1-9) Dandelion ([2]; Test 3, 14 DAT): 7 | % Control Dandelion ([2]; Test 3, 21 DAT): 77.8% | Control (1-9) Dandelion ([2]; Test 3, 21 DAT): 7 | % Control Dandelion ([2]; Test 3, 24 HAT): 33.3% | Control (1-9) Dandelion ([2]; Test 3, 24 HAT): 3 | % Control Dandelion ([2]; Test 3, 72 HAT): 55.6% | Control (1-9) Dandelion ([2]; Test 3, 72 HAT): 5 | % Control Plantain ([3]; Test 3, 7 DAT): 88.9% | Control (1-9) Plantain ([3]; Test 3, 7 DAT): 8 | % Control Plantain ([3]; Test 3, 14 DAT): 88.9% | Control (1-9) Plantain ([3]; Test 3, 14 DAT): 8 | % Control Plantain ([3]; Test 3, 21 DAT): 100.0% | Control (1-9) Plantain ([3]; Test 3, 21 DAT): 9 | % Control Plantain ([3]; Test 3, 24 HAT): 44.4% | Control (1-9) Plantain ([3]; Test 3, 24 HAT): 4 | % Control Plantain ([3]; Test 3, 72 HAT): 66.7% | Control (1-9) Plantain ([3]; Test 3, 72 HAT): 6 | % Control Clover ([4]; Test 3, 7 DAT): 44.4% | Control (1-9) Clover ([4]; Test 3, 7 DAT): 4 | % Control Clover ([4]; Test 3, 14 DAT): 55.6% | Control (1-9) Clover ([4]; Test 3, 14 DAT): 5 | % Control Clover ([4]; Test 3, 21 DAT): 55.6% | Control (1-9) Clover ([4]; Test 3, 21 DAT): 5 | % Control Clover ([4]; Test 3, 24 HAT): 22.2% | Control (1-9) Clover ([4]; Test 3, 24 HAT): 2 | % Control Clover ([4]; Test 3, 72 HAT): 33.3% | Control (1-9) Clover ([4]; Test 3, 72 HAT): 3
